Test results taken from patent US9346798B2, “Dihydrobenzoxazine and tetrahydroquinoxaline sodium channel inhibitors” (AMGEN INC., priority 2012, dated 2016).

Legend:
Type in all cases: cell-based
Nav 1.7 [1] = molecular target: T1, Nav 1.7 (Homo sapiens (Human), UniProt Q15858); assay: Nav 1.7 in vitro assay, IonWorks Quattro (IWQ) population patch-clamp; settings: HEK 293 cells stably transfected with Nav 1.7; 26th pulse to -20 mV
Nav 1.5 = Nav 1.5 (Homo sapiens (Human), UniProt Q14524); assay: Nav 1.5 in vitro assay, IonWorks Quattro (IWQ) population patch-clamp; settings: HEK 293 cells stably transfected with Nav 1.5; 26th pulse to -20 mV
Nav 1.5, sequence (Q14524 whole entry): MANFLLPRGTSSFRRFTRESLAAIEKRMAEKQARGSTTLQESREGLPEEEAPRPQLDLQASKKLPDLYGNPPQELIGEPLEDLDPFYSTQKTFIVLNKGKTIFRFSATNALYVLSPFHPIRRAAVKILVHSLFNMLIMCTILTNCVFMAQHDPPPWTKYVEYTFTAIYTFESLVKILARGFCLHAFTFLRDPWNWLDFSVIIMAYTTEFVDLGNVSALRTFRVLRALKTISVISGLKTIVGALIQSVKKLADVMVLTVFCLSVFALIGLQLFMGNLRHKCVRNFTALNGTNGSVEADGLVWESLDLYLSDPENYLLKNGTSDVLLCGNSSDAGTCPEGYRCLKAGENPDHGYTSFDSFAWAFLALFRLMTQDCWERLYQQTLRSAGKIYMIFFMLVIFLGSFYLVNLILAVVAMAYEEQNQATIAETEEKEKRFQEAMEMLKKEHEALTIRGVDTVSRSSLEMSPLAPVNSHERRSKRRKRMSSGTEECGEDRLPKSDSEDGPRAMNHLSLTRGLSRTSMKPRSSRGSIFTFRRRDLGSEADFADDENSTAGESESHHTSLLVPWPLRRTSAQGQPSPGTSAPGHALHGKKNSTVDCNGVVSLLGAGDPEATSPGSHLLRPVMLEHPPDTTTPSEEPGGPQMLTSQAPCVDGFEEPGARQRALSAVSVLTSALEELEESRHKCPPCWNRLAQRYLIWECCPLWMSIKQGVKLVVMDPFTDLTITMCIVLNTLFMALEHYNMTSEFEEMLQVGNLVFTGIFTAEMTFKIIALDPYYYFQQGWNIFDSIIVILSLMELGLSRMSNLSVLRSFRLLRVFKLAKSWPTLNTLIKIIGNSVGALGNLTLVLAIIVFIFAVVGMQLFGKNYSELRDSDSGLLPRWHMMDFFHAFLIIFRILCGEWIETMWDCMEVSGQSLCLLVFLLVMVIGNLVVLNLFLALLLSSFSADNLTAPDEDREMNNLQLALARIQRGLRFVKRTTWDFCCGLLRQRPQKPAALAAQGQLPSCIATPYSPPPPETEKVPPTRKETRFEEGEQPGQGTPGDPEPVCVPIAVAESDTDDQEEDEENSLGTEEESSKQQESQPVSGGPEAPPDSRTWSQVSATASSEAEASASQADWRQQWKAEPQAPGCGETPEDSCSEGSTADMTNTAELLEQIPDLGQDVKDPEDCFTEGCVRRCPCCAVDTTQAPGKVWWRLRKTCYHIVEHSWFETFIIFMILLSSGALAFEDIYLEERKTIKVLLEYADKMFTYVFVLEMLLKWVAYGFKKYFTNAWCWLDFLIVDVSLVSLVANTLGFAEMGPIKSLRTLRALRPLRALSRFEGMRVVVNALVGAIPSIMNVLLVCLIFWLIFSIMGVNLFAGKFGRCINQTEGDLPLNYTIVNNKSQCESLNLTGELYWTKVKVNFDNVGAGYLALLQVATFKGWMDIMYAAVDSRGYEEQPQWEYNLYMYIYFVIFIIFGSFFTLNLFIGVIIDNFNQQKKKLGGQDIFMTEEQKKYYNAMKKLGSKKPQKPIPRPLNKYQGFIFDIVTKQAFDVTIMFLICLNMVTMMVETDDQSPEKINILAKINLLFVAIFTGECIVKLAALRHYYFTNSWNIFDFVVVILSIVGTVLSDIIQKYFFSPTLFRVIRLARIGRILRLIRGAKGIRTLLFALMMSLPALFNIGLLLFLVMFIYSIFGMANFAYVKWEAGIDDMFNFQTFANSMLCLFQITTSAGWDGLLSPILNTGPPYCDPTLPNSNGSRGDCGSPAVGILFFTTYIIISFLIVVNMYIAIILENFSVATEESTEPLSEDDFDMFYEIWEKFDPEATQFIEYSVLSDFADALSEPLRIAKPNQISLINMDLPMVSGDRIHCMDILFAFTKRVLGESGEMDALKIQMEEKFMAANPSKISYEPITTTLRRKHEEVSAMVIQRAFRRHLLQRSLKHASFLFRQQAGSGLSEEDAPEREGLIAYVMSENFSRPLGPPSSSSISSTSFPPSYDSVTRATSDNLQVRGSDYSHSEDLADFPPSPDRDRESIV

Nav 1.7 [2] = molecular target: T1, Nav 1.7; assay: Nav 1.7 in vitro PX assay, PatchXpress whole cell voltage clamp; settings: HEK 293 cells stably transfected with human Nav1.7; for IC50: partially inactivated state (20 to 50% inactivation)
In short: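 HEK293 cells stably expressing human Nav1.7, whole-cell voltage clamp at a holding potential giving 20–50% inactivation; currents elicited by 20 msec pulses to −10 mV at 0.1 Hz.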

T1 sequence (Q15858 whole entry): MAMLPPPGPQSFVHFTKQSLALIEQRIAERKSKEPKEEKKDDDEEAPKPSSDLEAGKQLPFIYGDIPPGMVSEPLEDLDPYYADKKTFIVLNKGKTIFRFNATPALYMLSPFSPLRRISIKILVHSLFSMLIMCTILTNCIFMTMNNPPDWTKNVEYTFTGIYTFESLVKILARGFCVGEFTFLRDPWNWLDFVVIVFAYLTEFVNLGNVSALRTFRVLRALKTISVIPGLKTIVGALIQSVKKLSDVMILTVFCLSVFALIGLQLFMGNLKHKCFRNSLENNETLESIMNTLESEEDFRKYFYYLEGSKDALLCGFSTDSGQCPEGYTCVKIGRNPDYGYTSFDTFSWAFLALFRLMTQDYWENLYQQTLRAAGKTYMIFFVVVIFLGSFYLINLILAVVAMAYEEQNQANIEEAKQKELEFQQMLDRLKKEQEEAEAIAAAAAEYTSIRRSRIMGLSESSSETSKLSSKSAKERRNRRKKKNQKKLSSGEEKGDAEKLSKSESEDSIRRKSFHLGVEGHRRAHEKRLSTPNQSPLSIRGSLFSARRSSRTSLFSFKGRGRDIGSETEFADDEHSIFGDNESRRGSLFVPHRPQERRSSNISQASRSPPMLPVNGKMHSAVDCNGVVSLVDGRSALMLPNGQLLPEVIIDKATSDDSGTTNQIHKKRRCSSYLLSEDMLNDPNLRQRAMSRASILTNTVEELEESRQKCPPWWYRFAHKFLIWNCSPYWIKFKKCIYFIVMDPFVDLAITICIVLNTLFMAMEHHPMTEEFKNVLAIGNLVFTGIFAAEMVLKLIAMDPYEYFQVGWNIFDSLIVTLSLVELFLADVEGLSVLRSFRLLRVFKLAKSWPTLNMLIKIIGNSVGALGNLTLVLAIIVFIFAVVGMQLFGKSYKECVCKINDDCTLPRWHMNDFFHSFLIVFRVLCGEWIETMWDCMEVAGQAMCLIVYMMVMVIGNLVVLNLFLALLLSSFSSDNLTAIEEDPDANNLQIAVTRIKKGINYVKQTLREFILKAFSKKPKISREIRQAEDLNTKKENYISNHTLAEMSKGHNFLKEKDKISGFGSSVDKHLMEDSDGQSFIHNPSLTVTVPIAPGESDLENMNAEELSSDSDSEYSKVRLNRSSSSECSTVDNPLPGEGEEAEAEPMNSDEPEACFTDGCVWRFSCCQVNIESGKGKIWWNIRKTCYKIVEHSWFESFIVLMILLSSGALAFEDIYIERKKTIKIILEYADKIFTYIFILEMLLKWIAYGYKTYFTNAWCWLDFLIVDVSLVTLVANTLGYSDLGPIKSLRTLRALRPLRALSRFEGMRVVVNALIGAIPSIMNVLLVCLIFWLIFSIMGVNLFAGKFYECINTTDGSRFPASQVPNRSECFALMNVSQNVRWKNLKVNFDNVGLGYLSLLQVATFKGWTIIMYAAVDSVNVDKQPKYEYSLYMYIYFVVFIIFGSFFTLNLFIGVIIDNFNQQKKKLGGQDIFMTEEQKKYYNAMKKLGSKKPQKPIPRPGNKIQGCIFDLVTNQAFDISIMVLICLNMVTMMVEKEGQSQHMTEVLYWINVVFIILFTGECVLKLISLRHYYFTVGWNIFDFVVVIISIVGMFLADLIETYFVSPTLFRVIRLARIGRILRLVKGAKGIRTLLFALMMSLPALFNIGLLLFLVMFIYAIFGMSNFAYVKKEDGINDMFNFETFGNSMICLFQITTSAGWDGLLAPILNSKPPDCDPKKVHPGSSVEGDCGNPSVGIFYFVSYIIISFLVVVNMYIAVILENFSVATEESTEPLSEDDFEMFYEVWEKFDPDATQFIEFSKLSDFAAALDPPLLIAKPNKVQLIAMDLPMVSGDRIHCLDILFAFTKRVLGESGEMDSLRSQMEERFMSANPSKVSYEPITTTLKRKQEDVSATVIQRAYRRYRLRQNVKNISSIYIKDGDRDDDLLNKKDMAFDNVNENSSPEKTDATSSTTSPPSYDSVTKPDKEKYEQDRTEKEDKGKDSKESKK

Compound	IC50 (Nav 1.7 [1])	IC50 (Nav 1.7 [2])	inhibition at 4.9 µM (Nav 1.7 [2]; HEK293, values marked *, 4.9 μM, read-out: Nav 1.7 PX percent inhibition at 4.9 μM)	IC50 (Nav 1.5)
N#Cc1ccc(N2CCOc3cc(S(=O)(=O)Nc4nccs4)ccc32)cc1 [Example 76, 4-(4-Cyanophenyl)-N-(Thiazol-2-Yl)-3,4-Dihydro-2H-Benzo[B][1,4]Oxazine-7-Sulfonamide 2,2,2-Trifluoroacetate]	871 nM	9230 nM		6030 nM
Cc1ccc(F)c(N2CCOc3cc(S(=O)(=O)Nc4nccs4)ccc32)c1 [Example 80, 4-(2-Fluoro-5-Methylphenyl)-N-(Thiazol-2-Yl)-3,4-Dihydro-2H-Benzo[B][1,4]Oxazine-7-Sulfonamide 2,2,2-Trifluoroacetate]	126 nM	340 nM		5640 nM
N#Cc1cc(C(F)(F)F)ccc1N1CCOc2cc(S(=O)(=O)Nc3ncco3)ccc21 [Example 90, 4-(2-Cyano-4-(Trifluoromethyl)Phenyl)-N-(Oxazol-2-Yl)-3,4-Dihydro-2H-Benzo[B][1,4]Oxazine-7-Sulfonamide]	924 nM	2590 nM		> 10000 nM
N#Cc1cc(C(F)(F)F)ccc1N1CCOc2cc(S(=O)(=O)Nc3ccno3)ccc21 [Example 91, 4-(2-Cyano-4-(Trifluoromethyl)Phenyl)-N-(Isoxazol-5-Yl)-3,4-Dihydro-2H-Benzo[B][1,4]Oxazine-7-Sulfonamide]	3640 nM	9210 nM		> 10000 nM
O=S(=O)(Nc1ccncn1)c1ccc2c(c1)OCCN2c1ncc(C(F)(F)F)cc1Cl [Example 99, 4-(3-Chloro-5-(Trifluoromethyl)Pyridin-2-Yl)-N-(Pyrimidin-4-Yl)-3,4-Dihydro-2H-Benzo[B][1,4]Oxazine-7-Sulfonamide]	327 nM	4970 nM		> 10000 nM
Cc1cc(F)cnc1N1CCOc2cc(S(=O)(=O)Nc3nccs3)ccc21 [Example 110, 4-(5-Fluoro-3-methylpyridin-2-yl)-N-(thiazol-2-yl)-3,4-dihydro-2H-benzo[b][1,4]oxazine-7-sulfonamide]	1700 nM		39.2%	> 10000 nM
CC(C)c1ccc(N2CCOc3cc(S(=O)(=O)Nc4nccs4)ccc32)cc1 [Example 112, 4-(4-Isopropylphenyl)-N-(thiazol-2-yl)-3,4-dihydro-2H-benzo[b][1,4]oxazine-7-sulfonamide]	1660 nM	12200 nM		> 10000 nM
O=S(=O)(Nc1nccs1)c1ccc2c(c1)OCCN2c1ccc(OCC(F)(F)F)cc1 [Example 113, N-(thiazol-2-yl)-4-(4-(2,2,2-trifluoroethoxy)phenyl)-3,4-dihydro-2H-benzo[b][1,4]oxazine-7-sulfonamide]	891 nM	2720 nM		3370 nM
Cc1ccc(N2CCOc3cc(S(=O)(=O)Nc4nccs4)ccc32)cc1C#N [Example 115, 4-(3-Cyano-4-methylphenyl)-N-(thiazol-2-yl)-3,4-dihydro-2H-benzo[b][1,4]oxazine-7-sulfonamide]	1280 nM	5570 nM		7730 nM
Cc1cc(N2CCOc3cc(S(=O)(=O)Nc4nccs4)ccc32)ccc1C#N [Example 116, 4-(4-Cyano-3-methylphenyl)-N-(thiazol-2-yl)-3,4-dihydro-2H-benzo[b][1,4]oxazine-7-sulfonamide]	841 nM	4950 nM		7360 nM
COc1ccc(N2CCOc3cc(S(=O)(=O)Nc4nccs4)ccc32)cc1C#N [Example 118, 4-(3-Cyano-4-methoxyphenyl)-N-(thiazol-2-yl)-3,4-dihydro-2H-benzo[b][1,4]oxazine-7-sulfonamide]	660 nM	18100 nM		> 10000 nM
COc1ccc(N2CCOc3cc(S(=O)(=O)Nc4nccs4)ccc32)c(OC)c1 [Example 120, 4-(2,4-Dimethoxyphenyl)-N-(thiazol-2-yl)-3,4-dihydro-2H-benzo[b][1,4]oxazine-7-sulfonamide]	796 nM	2240 nM		> 10000 nM
O=S(=O)(Nc1nccs1)c1ccc2c(c1)OCCN2c1ccc(C(F)(F)F)nc1 [Example 122, N-(thiazol-2-yl)-4-(6-(trifluoromethyl)pyridin-3-yl)-3,4-dihydro-2H-benzo[b][1,4]oxazine-7-sulfonamide]	615 nM	2900 nM		7030 nM
O=S(=O)(Nc1nccs1)c1ccc2c(c1)OCCN2c1ccc(OC(F)(F)C(F)F)cc1 [Example 123, 4-(4-(1,1,2,2-Tetrafluoroethoxy)phenyl)-N-(thiazol-2-yl)-3,4-dihydro-2H-benzo[b][1,4]oxazine-7-sulfonamide]	1070 nM	4720 nM		5810 nM
O=S(=O)(Nc1nccs1)c1ccc2c(c1)OCCN2c1ccc(Cl)c(C(F)(F)F)c1 [Example 125, 4-(4-Chloro-3-(trifluoromethyl)phenyl)-N-(thiazol-2-yl)-3,4-dihydro-2H-benzo[b][1,4]oxazine-7-sulfonamide]	571 nM	4040 nM		6550 nM
O=S(=O)(Nc1nccs1)c1ccc2c(c1)OCCN2c1ccc(C(F)(F)F)c(Cl)c1 [Example 126, 4-(3-Chloro-4-(trifluoromethyl)phenyl)-N-(thiazol-2-yl)-3,4-dihydro-2H-benzo[b][1,4]oxazine-7-sulfonamide]	1240 nM	14200 nM		> 10000 nM

More lines, main results first:

IC50 (Nav 1.7 [1])	IC50 (Nav 1.7 [2])	inhibition at 4.9 µM (Nav 1.7 [2]; HEK293, values marked *, 4.9 μM, read-out: Nav 1.7 PX percent inhibition at 4.9 μM)	Compound	IC50 (Nav 1.5)
249 nM	2220 nM		Cc1c(F)cccc1N1CCOc2cc(S(=O)(=O)Nc3nccs3)ccc21 [Example 78, 4-(3-Fluoro-2-Methylphenyl)-N-(Thiazol-2-Yl)-3,4-Dihydro-2H-Benzo[B][1,4]Oxazine-7-Sulfonamide 2,2,2-Trifluoroacetate]	> 10000 nM
216 nM	1180 nM		Cc1ccc(F)cc1N1CCOc2cc(S(=O)(=O)Nc3nccs3)ccc21 [Example 79, 4-(5-Fluoro-2-Methylphenyl)-N-(Thiazol-2-Yl)-3,4-Dihydro-2H-Benzo[B][1,4]Oxazine-7-Sulfonamide 2,2,2-Trifluoroacetate]	> 10000 nM
288 nM	1650 nM		Cc1cc(N2CCOc3cc(S(=O)(=O)Nc4nccs4)ccc32)ccc1F [Example 81, 4-(4-Fluoro-3-Methylphenyl)-N-(Thiazol-2-Yl)-3,4-Dihydro-2H-Benzo[B][1,4]Oxazine-7-Sulfonamide 2,2,2-Trifluoroacetate]	> 10000 nM
326 nM	3040 nM		O=S(=O)(Nc1nccs1)c1ccc2c(c1)OCCN2c1ccc(F)c(F)c1 [Example 84, 4-(3,4-Difluorophenyl)-N-(Thiazol-2-Yl)-3,4-Dihydro-2H-Benzo[B][1,4]Oxazine-7-Sulfonamide 2,2,2-Trifluoroacetate]	3810 nM
320 nM	851 nM		O=S(=O)(Nc1ncccn1)c1ccc2c(c1)OCCN2c1ccc(C(F)(F)F)cc1C1=CCNCC1 [Example 86, N-(Pyrimidin-2-Yl)-4-(2-(1,2,3,6-Tetrahydropyridin-4-Yl)-4-(Trifluoromethyl)Phenyl)-3,4-Dihydro-2H-Benzo[B][1,4]Oxazine-7-Sulfonamide]	2260 nM
26 nM	381 nM		O=S(=O)(Nc1cccnn1)c1ccc2c(c1)OCCN2c1ccc(C(F)(F)F)cc1C1=CCNCC1 [Example 87, N-(Pyridazin-3-Yl)-4-(2-(1,2,3,6-Tetrahydropyridin-4-Yl)-4-(Trifluoromethyl)Phenyl)-3,4-Dihydro-2H-Benzo[B][1,4]Oxazine-7-Sulfonamide]	> 10000 nM
224 nM	737 nM		O=S(=O)(Nc1cnccn1)c1ccc2c(c1)OCCN2c1ccc(C(F)(F)F)cc1C1=CCNCC1 [Example 88, N-(Pyrazin-2-Yl)-4-(2-(1,2,3,6-Tetrahydropyridin-4-Yl)-4-(Trifluoromethyl)Phenyl)-3,4-Dihydro-2H-Benzo[B][1,4]Oxazine-7-Sulfonamide]	> 10000 nM
28.5 nM	464 nM		N#Cc1cc(C(F)(F)F)ccc1N1CCOc2cc(S(=O)(=O)Nc3ccncn3)ccc21 [Example 89, 4-(2-Cyano-4-(Trifluoromethyl)Phenyl)-N-(Pyrimidin-4-Yl)-3,4-Dihydro-2H-Benzo[B][1,4]Oxazine-7-Sulfonamide]	1140 nM
249 nM	1980 nM		COc1ccc(C)nc1N1CCOc2cc(S(=O)(=O)Nc3nccs3)ccc21 [Example 109, 4-(3-methoxy-6-methyl-2-pyridinyl)-N-1,3-thiazol-2-yl-3,4-dihydro-2H-1,4-benzoxazine-7-sulfonamide]	> 10000 nM
33.5 nM	1050 nM		COc1ncc(Cl)cc1N1CCOc2cc(S(=O)(=O)Nc3nccs3)ccc21 [Example 111, 4-(5-Chloro-2-methoxypyridin-3-yl)-N-(thiazol-2-yl)-3,4-dihydro-2H-benzo[b][1,4]oxazine-7-sulfonamide]	3030 nM
40.5 nM	278 nM		COc1ccc(C(F)(F)F)cc1N1CCOc2cc(S(=O)(=O)Nc3nccs3)ccc21 [Example 114, 4-(2-Methoxy-5-(trifluoromethyl)phenyl)-N-(thiazol-2-yl)-3,4-dihydro-2H-benzo[b][1,4]oxazine-7-sulfonamide]	5060 nM
160 nM	2690 nM		Cc1cc(C#N)cc(N2CCOc3cc(S(=O)(=O)Nc4nccs4)ccc32)c1 [Example 124, 4-(3-Cyano-5-methylphenyl)-N-(thiazol-2-yl)-3,4-dihydro-2H-benzo[b][1,4]oxazine-7-sulfonamide]	2330 nM
